Consider eight compounds from patent US8962613B2, “P2X4 receptor antagonist” (Nippon Chemiphar Co., Ltd., priority 2010, dated 2015).

Molecules are shown by their SMILES. Structures can show the parent of a compound that is named as a salt. Where two headings read alike, the source gives them in different places.

As usually defined, the IC50 is the midpoint of a concentration-inhibition curve.

The target in this experiment is T1, human P2X4 receptors (Homo sapiens, UniProt Q99571).
T1 sequence (Q99571 1-388): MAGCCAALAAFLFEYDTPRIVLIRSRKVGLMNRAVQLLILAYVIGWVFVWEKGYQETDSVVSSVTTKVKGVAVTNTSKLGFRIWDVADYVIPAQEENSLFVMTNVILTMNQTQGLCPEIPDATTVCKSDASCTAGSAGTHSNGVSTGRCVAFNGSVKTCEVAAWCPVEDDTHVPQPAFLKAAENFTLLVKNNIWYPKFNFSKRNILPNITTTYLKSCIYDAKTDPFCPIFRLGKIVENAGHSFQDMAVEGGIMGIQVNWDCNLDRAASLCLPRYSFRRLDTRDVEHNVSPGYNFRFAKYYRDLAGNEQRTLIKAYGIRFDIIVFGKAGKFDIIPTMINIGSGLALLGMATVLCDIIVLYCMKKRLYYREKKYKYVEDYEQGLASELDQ
Nature of the experiment: P2X4 receptor antagonism, intracellular calcium influx assay (Fura-2 AM, ATP-induced). The format is cell-based. The settings on record: for IC50: 1321N1 cells stably expressing human P2X4 receptors, compound added 15 min before ATP, read-out: Inhibition activities (IC50 μM). The protocol:
1321N1 cells stably expressing human P2X4 receptors were adopted for calcium influx assay. P2X4/1321N1 cells were plated in 96-well assay plate and cultured for 24 hours in an atmosphere of 5% CO2 at 37° C. Fura-2 AM calcium indicator dissolved in an extracellular solution for calcium imaging was loaded onto cells for 45 minutes at room temperature. The fluorescence was detected by FLUOstar OPTIMA micro plate reader (BMG labtech). The cells were alternatively illuminated with two excitations wavelengths (340 nm and 380 nm) via xenon lamp and the emitted fluorescence was measured at 510 nm. The fluorescence changes after the treatment of 1 μM ATP were monitored and determined the fluorescence ratio (F340/F380) as the index of intracellular calcium change. Tested compounds were treated to cells 15 min before the addition of ATP and the inhibition activities of compounds were calculated by comparing the Ca^2+ response with control in the absence of tested compound.
P2X4 receptor antagonism of the compound of the present invention was measured as described below.
1321N1 cells stably expressing human P2X4 receptors were plated in 96-well assay plate and cultured for 24 hours at 37° C. in an atmosphere of 5% CO2 for intracellular calcium assay. Fura-2 AM calcium fluorescent indicator was used for the intracellular calcium assay. Fura-2 AM was dissolved in an assay buffer, and the solution was loaded onto cells. The obtained plate was used for fluorescent assay.
Test compounds were treated to cells for 15 minutes before the addition of ATP, and the response to intracellular calcium influx induced by addition of ATP was monitored by a micro plate reader. The fluorescence ratio of excitations wavelengths of 340 nm and 380 nm was used as the index of intracellular calcium change. The inhibition activities of the test compounds were calculated by comparison with the absence of the test compound (control).

The mark [1] stands for this setting: Table 20, same manner as in Example 19.
Where [2] appears, read: Table 19, fluorescence ratio F340/F380 vs control.

As for `Nc1cccc(N2C(=O)CC(=O)Nc3c2ccc2c3CCCC2)c1` [Example 8, 5-(3-Aminophenyl)-1,5,8,9,10,11-hexahydronaphtho[1,2-b][1,4]diazepine-2,4-dione hydrochloride], under setting [1], the IC50 amounted to 4 µM.

With `O=C1CC(=O)N(c2cccc(O)c2)c2ccc3c(c2N1)CCCC3` [Example 3, 5-(3-Hydroxyphenyl)-8,9,10,11-tetrahydronaphtho[2,1-b][1,4]diazepine-2,4(3H,5H)-dione], under setting [2], the half-maximal inhibitory concentration (IC50) came out at 3.9 µM.

Take `Nc1ccc(N2C(=O)CC(=O)Nc3c2ccc2c3CCCC2)cc1` [Example 10, 5-(4-Aminophenyl)-1,5,8,9,10,11-hexahydronaphtho[1,2-b][1,4]diazepine-2,4-dione]: the concentration for half-maximal inhibition (IC50) under setting [1] amounted to 6.1 µM.

For the compound `COc1ccc(N2C(=O)CC(=O)Nc3c2ccc2c3CCCC2)cc1` [Example 13, 5-(4-Methoxyphenyl)-1,5,8,9,10,11-hexahydronaphtho[1,2-b][1,4]diazepine-2,4-dione], the IC50 under setting [1] was 6.9 µM.

Regarding `O=C1CC(=O)N(c2cccc(-c3nnn[nH]3)c2)c2ccc3c(c2N1)CCCC3.[Na]` [Example 2, 5-[3-(1H-Tetrazol-5-yl)phenyl]-8,9,10,11-tetrahydronaphtho[2,1-b][1,4]diazepine-2,4(3H,5H)-dione sodium salt], under “summary statement on Tables 19 and 20”, the “P2X4 receptor antagonism (in words)” value was “excellent P2X4 receptor antagonism”.

For `O=C1CC(=O)N(c2cccc(-c3nnn[nH]3)c2)c2ccc3c(c2N1)CCC3` [Example 5, 5-[3-(1H-Tetrazol-5-yl)phenyl]-5,8,9,10-tetrahydroindeno[5,4-b][1,4]diazepine-2,4(1H,3H)-dione sodium salt], under setting [2], the IC50 is 0.97 µM.

Turning to `O=C1CC(=O)N(c2ccc(O)cc2)c2ccc3c(c2N1)CCCC3` [Example 14, 5-(4-Hydroxyphenyl)-1,5,8,9,10,11-hexahydronaphtho[1,2-b][1,4]diazepine-2,4-dione], the concentration for half-maximal inhibition (IC50) under setting [1] amounted to 3.8 µM.

Take `CNc1ccc(N2C(=O)CC(=O)Nc3c2ccc2c3CCCC2)cc1` [Example 11, 5-(4-Methylaminophenyl)-1,5,8,9,10,11-hexahydronaphtho[1,2-b][1,4]diazepine-2,4-dione hydrochloride]: the IC50 under setting [1] is 3.3 µM.
